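Interpolation was linear, between the two tested concentrations surrounding the appropriate level; five concentrations were tested over 48 hours in 96-well plates. GI50: concentration for 50% inhibition of growth. At the TGI there is no net growth.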
Legend:
Assay in all cases: NCI-60 cell line screen, 48 h
LOX IMVI melanoma = tested on: LOX IMVI melanoma
SNB-75 CNS = tested on: SNB-75 CNS
A498 renal = tested on: A498 renal
SK-MEL-2 melanoma = tested on: SK-MEL-2 melanoma
BT-549 breast = tested on: BT-549 breast
SF-268 CNS = tested on: SF-268 CNS
HT29 colon = tested on: HT29 colon
KM12 colon = tested on: KM12 colon
SK-OV-3 ovarian = tested on: SK-OV-3 ovarian
NCI/ADR-RES ovarian = tested on: NCI/ADR-RES ovarian
TK-10 renal = tested on: TK-10 renal
U251 CNS = tested on: U251 CNS
SF-295 CNS = tested on: SF-295 CNS
A549 NSCLC = tested on: A549 NSCLC
CAKI-1 renal = tested on: CAKI-1 renal
SF-539 CNS = tested on: SF-539 CNS
HS 578T breast = tested on: HS 578T breast
HCC-2998 colon = tested on: HCC-2998 colon
DU-145 prostate = tested on: DU-145 prostate
IGROV1 ovarian = tested on: IGROV1 ovarian
NCI-H226 lung = tested on: NCI-H226 lung
SK-MEL-28 melanoma = tested on: SK-MEL-28 melanoma
PC-3 prostate = tested on: PC-3 prostate
MDA-MB-435 = tested on: MDA-MB-435
M14 melanoma = tested on: M14 melanoma
HCT-116 colon = tested on: HCT-116 colon
EKVX NSCLC = tested on: EKVX NSCLC
MCF7 breast = tested on: MCF7 breast
UACC-62 melanoma = tested on: UACC-62 melanoma

Compound CS(=O)c1nccc(-c2c(-c3ccc(F)c(OCc4ccc(F)cc4)c3)nc3sccn23)n1 (configuration not stated) has a GI50 (LOX IMVI melanoma) of 74.6 µM, a TGI (LOX IMVI melanoma) greater than 100 µM and a GI50 (SNB-75 CNS) greater than 100 µM. It also gave a TGI (SNB-75 CNS) greater than 100 µM, a GI50 (A498 renal) greater than 100 µM and a TGI (A498 renal) greater than 100 µM. For the same compound, the GI50 (SK-MEL-2 melanoma) was 71.8 µM, the TGI (SK-MEL-2 melanoma) was greater than 100 µM and the GI50 (BT-549 breast) was greater than 100 µM. For the same compound, the TGI (BT-549 breast) was greater than 100 µM, the GI50 (SF-268 CNS) was 19.5 µM and the TGI (SF-268 CNS) was 57.6 µM. For the same compound, the GI50 (HT29 colon) was 22.3 µM, the TGI (HT29 colon) was greater than 100 µM and the GI50 (KM12 colon) was 11.3 µM. For the same compound, the TGI (KM12 colon) was 31.6 µM, the GI50 (SK-OV-3 ovarian) was greater than 100 µM and the TGI (SK-OV-3 ovarian) was greater than 100 µM. The GI50 (NCI/ADR-RES ovarian) was greater than 100 µM, the TGI (NCI/ADR-RES ovarian) was greater than 100 µM and the GI50 (TK-10 renal) was greater than 100 µM. The TGI (TK-10 renal) was greater than 100 µM, the GI50 (U251 CNS) was greater than 100 µM and the TGI (U251 CNS) was greater than 100 µM. It also gave a GI50 (SF-295 CNS) greater than 100 µM, a TGI (SF-295 CNS) greater than 100 µM and a GI50 (A549 NSCLC) greater than 100 µM. The TGI (A549 NSCLC) was greater than 100 µM, the GI50 (CAKI-1 renal) was 18.4 µM and the TGI (CAKI-1 renal) was 76.6 µM. For the same compound, the GI50 (SF-539 CNS) was greater than 100 µM, the TGI (SF-539 CNS) was greater than 100 µM and the GI50 (HS 578T breast) was 73.1 µM. It also gave a TGI (HS 578T breast) greater than 100 µM, a GI50 (HCC-2998 colon) of 10.2 µM and a TGI (HCC-2998 colon) of 23.6 µM. The GI50 (DU-145 prostate) was 3.72 µM, the TGI (DU-145 prostate) was 13.2 µM and the GI50 (IGROV1 ovarian) was 4.14 µM. The TGI (IGROV1 ovarian) was 17.1 µM, the GI50 (NCI-H226 lung) was greater than 100 µM and the TGI (NCI-H226 lung) was greater than 100 µM. It also gave a GI50 (SK-MEL-28 melanoma) of 6.6 µM, a TGI (SK-MEL-28 melanoma) of 21.5 µM and a GI50 (PC-3 prostate) of 11.3 µM. For the same compound, the TGI (PC-3 prostate) was 34.1 µM, the GI50 (MDA-MB-435) was 47.8 µM and the TGI (MDA-MB-435) was greater than 100 µM. For the same compound, the GI50 (M14 melanoma) was 35.1 µM, the TGI (M14 melanoma) was greater than 100 µM and the GI50 (HCT-116 colon) was 5.08 µM. It also gave a TGI (HCT-116 colon) of 20.8 µM, a GI50 (EKVX NSCLC) of 16.3 µM and a TGI (EKVX NSCLC) of 41.3 µM. The GI50 (MCF7 breast) was 2.18 µM, the TGI (MCF7 breast) was 5.39 µM and the GI50 (UACC-62 melanoma) was 32.1 µM.

From PubChem BioAssay (NCI)
